Patent US7511042B2, “Triazole compounds” (Boehringer Ingelheim Pharmaceuticals, Inc., priority 2003, dated 2009)

Row | melting point | SMILES
1 | 181 to 182 °C (dec.) | COc1cnc(C(C)(C)C)cc1NC(=O)c1ccc(C)c(-n2cc(C(=O)NCC(C)(C)C)nn2)c1 [Example 12, 1-[5-(2-tert-Butyl-5-methoxy-pyridin-4-ylcarbamoyl)-2-methyl-phenyl]-1H-1,2,3-triazole-4-carboxylic acid (2,2-dimethyl-propyl)-amide]
2 | 74 to 78 °C (dec.) | Cc1ccc(C(=O)Nc2cc(C(C)(C)C)ccc2[S+](C)[O-])cc1-n1cc(C(=O)NCC(C)(C)C)nn1 (centres unmarked) [Example 13, 1-[5-(5-tert-Butyl-2-methanesulfinyl-phenylcarbamoyl)-2-methyl-phenyl]-1H-1,2,3-triazole-4-carboxylic acid (2,2-dimethyl-propyl)-amide]
